Data from PubChem BioAssay AID1259411 (Chemical Carcinogenesis Research Information System (CCRIS), 2018).
Activity calls are given as the source filed them. The rule behind the calls is not given here.

Test system: rodent carcinogenicity bioassays, tumor incidence
Assay: CCRIS carcinogenicity studies
How it was run: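 Archive of carcinogenicity, mutagenicity, tumor promotion and tumor inhibition results drawn from journals, NCI reports and other sources, expert-reviewed; covers 1985-2011 and is no longer updated.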

SMILES: Oc1ccc(Cl)cc1Cc1ccccc1
- carcinogen call (Species: MOUSE, Strain/Sex: B6C3F1/FEMALE, Route: GAVAGE, Dose: 0, 120, 240, 480 MG/KG BW IN CORN OIL 5 D/WK FOR 103 WK (STUDY DURATION: 2 YR), Dose: 0, 120, 240, 480 MG/KG BW IN CORN OIL 5 D/WK FOR 103 WK (STUDY DURATION: 2 YR)): inactive; negative
- carcinogen call (Species: MOUSE, Strain/Sex: B6C3F1/MALE, Route: GAVAGE, Dose: 0, 120, 240, 480 MG/KG BW IN CORN OIL 5 D/WK FOR 103 WK (STUDY DURATION: 2 YR), Dose: 0, 120, 240, 480 MG/KG BW IN CORN OIL 5 D/WK FOR 103 WK (STUDY DURATION: 2 YR), Tumor Site: Type of Lesion: KIDNEY (RENAL TUBULE): ADENOMA, ADENOMA OR CARCINOMA): active; positive
- carcinogen call (Species: MOUSE, Strain/Sex: CD-1/FEMALE, Route: DERMAL, Dose: 10 MG IN ACETONE ONCE FOLLOWED BY 0.1, 1, 3 MG 3/WK FOR 51 WK (STUDY DURATION: 52 WK), Dose: 10 MG IN ACETONE ONCE FOLLOWED BY 0.1, 1, 3 MG 3/WK FOR 51 WK (STUDY DURATION: 52 WK)): inactive; negative
- carcinogen call (Species: MOUSE, Strain/Sex: CD-1/MALE, Route: DERMAL, Dose: 10 MG IN ACETONE ONCE FOLLOWED BY 0.1, 1, 3 MG 3/WK FOR 51 WK (STUDY DURATION: 52 WK), Dose: 10 MG IN ACETONE ONCE FOLLOWED BY 0.1, 1, 3 MG 3/WK FOR 51 WK (STUDY DURATION: 52 WK)): inactive; negative
- carcinogen call (Species: RAT, Strain/Sex: F344/FEMALE, Route: GAVAGE, Dose: 0, 30, 60, 120 MG/KG BW IN CORN OIL 5 D/WK FOR 103 WK (STUDY DURATION: 105 WK), Dose: 0, 30, 60, 120 MG/KG BW IN CORN OIL 5 D/WK FOR 103 WK (STUDY DURATION: 105 WK), Tumor Site: Type of Lesion: KIDNEY (TRANSITIONAL CELL): CARCINOMA): equivocal
- carcinogen call (Species: RAT, Strain/Sex: F344/MALE, Route: GAVAGE, Dose: 0, 30, 60, 120 MG/KG BW IN CORN OIL 5 D/WK FOR 103 WK (STUDY DURATION: 2 YR), Dose: 0, 30, 60, 120 MG/KG BW IN CORN OIL 5 D/WK FOR 103 WK (STUDY DURATION: 2 YR)): inactive; negative

SMILES: NC(=O)N(CCc1ccccc1)N=O
- carcinogen call (Species: RAT, Strain/Sex: F344/FEMALE, Route: GAVAGE, Dose: 0, 20 MG/ML (TOTAL DOSE 0; 0.9 MMOL) IN 2 ML ETHYL ACETATE AND CORN OIL (1:2) 2/WK FOR 22 WK (STUDY DURATION: LIFETIME), Dose: 0, 20 MG/ML (TOTAL DOSE 0; 0.9 MMOL) IN 2 ML ETHYL ACETATE AND CORN OIL (1:2) 2/WK FOR 22 WK (STUDY DURATION: LIFETIME), Tumor Site: Type of Lesion: LIVER: TUMOR, FORESTOMACH: SQUAMOUS CELL CARCINOMA): active; positive
- carcinogen call (Species: RAT, Strain/Sex: F344/FEMALE, Route: GAVAGE, Dose: 0, 20 MG/ML IN 0.2 ML ETHYL ACETATE AND CORN OIL 2/WK FOR 22 WK (STUDY DURATION: LIFESPAN), Tumor Site: Type of Lesion: FORESTOMACH: TUMOR, LIVER: TUMOR): active; positive
- carcinogen call (Species: RAT, Strain/Sex: F344/MALE, Route: GAVAGE, Dose: 0, 20 MG/ML (TOTAL DOSE 0; 0.9 MMOL) IN 2 ML ETHYL ACETATE AND CORN OIL (1:2) 2/WK FOR 22 WK (STUDY DURATION: LIFETIME), Dose: 0, 20 MG/ML (TOTAL DOSE 0; 0.9 MMOL) IN 2 ML ETHYL ACETATE AND CORN OIL (1:2) 2/WK FOR 22 WK (STUDY DURATION: LIFETIME), Tumor Site: Type of Lesion: LIVER: TUMOR, FORESTOMACH: SQUAMOUS CELL CARCINOMA): active; positive
- carcinogen call (Species: RAT, Strain/Sex: F344/MALE, Route: GAVAGE, Dose: 0, 20 MG/ML IN 0.2 ML ETHYL ACETATE AND CORN OIL 2/WK FOR 22 WK (STUDY DURATION: LIFESPAN), Tumor Site: Type of Lesion: FORESTOMACH: TUMOR, LIVER: TUMOR, DUODENUM: TUMOR, Tumor Site: Type of Lesion: FORESTOMACH: TUMOR, LIVER: TUMOR, DUODENUM: TUMOR): active; positive

SMILES: O[C@H]1C=Cc2c(cc3ccc4cccc5ccc2c3c45)[C@@H]1O
- carcinogen call (Species: FISH, Strain/Sex: RAINBOW TROUT/MALE,FEMALE, Route: INJECTION, Dose: 0, 0.01, 1 UG INJECTED INTO NEWLY HATCHED SAC-FRY ONCE (STUDY DURATION: 9 MO), Dose: 0, 0.01, 1 UG INJECTED INTO NEWLY HATCHED SAC-FRY ONCE (STUDY DURATION: 9 MO), Tumor Site: Type of Lesion: LIVER: TUMOR): active; positive
- carcinogen call (Species: FISH, Strain/Sex: RAINBOW TROUT/MALE,FEMALE, Route: INJECTION, Dose: 0, 0.5, 2, 5 UG INJECTED INTO NEWLY HATCHED SAC-FRY (STUDY DURATION: 9 MO), Dose: 0, 0.5, 2, 5 UG INJECTED INTO NEWLY HATCHED SAC-FRY (STUDY DURATION: 9 MO), Tumor Site: Type of Lesion: LIVER: TUMOR): active; positive
- carcinogen call (Species: MOUSE, Strain/Sex: C57BL/FEMALE, Route: DERMAL, Dose: 0.15, 0.30 UMOL IN ACETONE/NH4OH (1000:1) EVERY 2 WK FOR 60 WK, Tumor Site: Type of Lesion: INTEGUMENTARY SYSTEM (SKIN): SQUAMOUS CELL CARCINOMA): active; positive
- carcinogen call (Species: MOUSE, Strain/Sex: SWISS/MALE,FEMALE, Route: INTRAPERITONEAL, Dose: 200 NMOL ON FIRST D OF LIFE, 400 NMOL ON D 8, 800 NMOL ON D 15, Tumor Site: Type of Lesion: LUNG: ADENOMA, HEMATOPOIETIC SYSTEM (LEUKEMIA), LYMPHATIC SYSTEM: MALIGNANT LYMPHOMA, Tumor Site: Type of Lesion: LUNG: ADENOMA, HEMATOPOIETIC SYSTEM (LEUKEMIA), LYMPHATIC SYSTEM: MALIGNANT LYMPHOMA): active; positive

SMILES: O
- carcinogen call (Species: MOUSE, Strain/Sex: B6C3F1/FEMALE, Route: ORAL, Dose: 0, 0.5, 2% IN DIET FOR 96 WK FOLLOWED BY CONTROL DIET FOR 8 WK (STUDY DURATION: 104 WK), Dose: 0, 0.5, 2% IN DIET FOR 96 WK FOLLOWED BY CONTROL DIET FOR 8 WK (STUDY DURATION: 104 WK)): inactive; negative
- carcinogen call (Species: MOUSE, Strain/Sex: B6C3F1/FEMALE, Route: ORAL, Dose: 0, 500, 1250, 2500 PPM IN DRINKING WATER (APPROXIMATELY 0; 40; 90; 200 MG/KG BW) FOR 104 WK (STUDY DURATION: 105 WK), Dose: 0, 500, 1250, 2500 PPM IN DRINKING WATER (APPROXIMATELY 0; 40; 90; 200 MG/KG BW) FOR 104 WK (STUDY DURATION: 105 WK)): inactive; negative
- carcinogen call (Species: MOUSE, Strain/Sex: B6C3F1/MALE, Route: ORAL, Dose: 0, 0.5, 2% IN DIET FOR 96 WK FOLLOWED BY CONTROL DIET FOR 8 WK (STUDY DURATION: 104 WK), Dose: 0, 0.5, 2% IN DIET FOR 96 WK FOLLOWED BY CONTROL DIET FOR 8 WK (STUDY DURATION: 104 WK)): inactive; negative
- carcinogen call (Species: MOUSE, Strain/Sex: B6C3F1/MALE, Route: ORAL, Dose: 0, 500, 1250, 2500 PPM IN DRINKING WATER (APPROXIMATELY 0; 30; 75; 160 MG/KG BW) FOR 103 WK (STUDY DURATION: 103 WK), Dose: 0, 500, 1250, 2500 PPM IN DRINKING WATER (APPROXIMATELY 0; 30; 75; 160 MG/KG BW) FOR 103 WK (STUDY DURATION: 103 WK)): inactive; negative
- carcinogen call (Species: RAT, Strain/Sex: F344/FEMALE, Route: ORAL, Dose: 0, 500, 1250, 2500 PPM IN DRINKING WATER (APPROXIMATELY 0; 15; 45; 75 MG/KG BW) FOR 105 WK (STUDY DURATION: 106 WK), Dose: 0, 500, 1250, 2500 PPM IN DRINKING WATER (APPROXIMATELY 0; 15; 45; 75 MG/KG BW) FOR 105 WK (STUDY DURATION: 106 WK)): inactive; negative
- carcinogen call (Species: RAT, Strain/Sex: F344/MALE, Route: ORAL, Dose: 0, 500, 1250, 2500 PPM IN DRINKING WATER (APPROXIMATELY 0; 15; 30; 60 MG/KG BW) FOR 104 WK (STUDY DURATION: 105 WK), Dose: 0, 500, 1250, 2500 PPM IN DRINKING WATER (APPROXIMATELY 0; 15; 30; 60 MG/KG BW) FOR 104 WK (STUDY DURATION: 105 WK)): inactive; negative
- carcinogen call (Species: RAT, Strain/Sex: WISTAR/MALE, Route: INHALATION, Dose: 0, 10 MG/M3 OF RESPIRABLE DUST 7 HR/D 5 D/WK FOR 224 DAYS DURING A PERIOD OF 12 MO (STUDY DURATION: 29 MO), Tumor Site: Type of Lesion: LUNG: ADENOMA OR CARCINOMA): active; positive
- carcinogen call (Species: RAT, Strain/Sex: WISTAR/MALE, Route: INTRAPERITONEAL, Dose: 0, 25 MG OF DUST SUSPENDED IN 2 ML PHOSPHATE BUFFERED SALINE (STUDY DURATION: >418 D), Tumor Site: Type of Lesion: LUNG: MESOTHELIOMA): active; positive

SMILES: CC(=O)Nc1ccc(C(=O)CCl)cc1
- carcinogen call (Species: MOUSE, Strain/Sex: B6C3F1/FEMALE, Route: ORAL, Dose: 0, 5000, 10000 PPM IN DIET, Dose: 0, 5000, 10000 PPM IN DIET): inactive; negative
- carcinogen call (Species: MOUSE, Strain/Sex: B6C3F1/MALE, Route: ORAL, Dose: 0, 5000, 10000 PPM IN DIET, Dose: 0, 5000, 10000 PPM IN DIET): inactive; negative
- carcinogen call (Species: RAT, Strain/Sex: F344/FEMALE, Route: ORAL, Dose: 0, 1000, 2000 PPM IN DIET, Dose: 0, 1000, 2000 PPM IN DIET): inactive; negative
- carcinogen call (Species: RAT, Strain/Sex: F344/MALE, Route: ORAL, Dose: 0, 1000, 2000 PPM IN DIET, Dose: 0, 1000, 2000 PPM IN DIET): inactive; negative
